Experimental data from the supplement of paper PMC11451515.

How the values were obtained:
Assay in all cases: AUC of viability dose-response curve (% viability x log10 dose units); higher = less sensitive
Settings in all cases: 48 h
NOMO1 = system: NOMO1
In short: (§1)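 Leukemia cells adapted to each medium were seeded at 500 or 1000 cells/well in 1536-well plates and dosed with library compounds in DMSO at 11 threefold doses from 47 μM to 0.79 nM for 48 h at 37°C. CellTiter-Glo One luminescence was normalised per plate to DMSO and cell-free wells, then fitted with a four-parameter log-logistic model over log10 doses. Area under the curve was taken from this fit by the trapezoidal rule, with curves above full viability scaled and curves failing quality control removed.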

SEM cells = system: SEM cells
In short: as §1

P12-Ichikawa = system: P12-Ichikawa
In short: as §1

[1] = RPMI 5 mM glucose + 10% dialyzed FBS

| Structure (SMILES) | AUC of viability dose-response curve (NOMO1; HPLM + 10% dialyzed FBS) | AUC of viability dose-response curve (NOMO1; RPMI 5 mM glucose + 10% FBS) | AUC of viability dose-response curve (NOMO1; [1]) | AUC of viability dose-response curve (SEM cells; HPLM + 10% dialyzed FBS) | AUC of viability dose-response curve (SEM cells; RPMI 5 mM glucose + 10% FBS) | AUC of viability dose-response curve (SEM cells; [1]) | AUC of viability dose-response curve (P12-Ichikawa; HPLM + 10% dialyzed FBS) | AUC of viability dose-response curve (P12-Ichikawa; RPMI 5 mM glucose + 10% FBS) | AUC of viability dose-response curve (P12-Ichikawa; [1]) |
| --- | --- | --- | --- | --- | --- | --- | --- | --- | --- |
| CN[C@@H]1[C@@H](O)[C@@H](O[C@@H]2[C@@H](O)[C@H](O[C@H]3O[C@H](CN)[C@@H](O)[C@H](O)[C@H]3O)[C@@H](N)C[C@H]2NC(=O)[C@@H](O)CN)OC[C@]1(C)O | 452 | 457 | 440 | 453 | 463 | 468 | 457 | 449 | 411 |
| CCN1CCN(c2ccc(Nc3cc(N(C)C(=O)Nc4c(Cl)c(OC)cc(OC)c4Cl)ncn3)cc2)CC1 | 372 | 395 | 399 | 347 | 316 | 351 | 429 | 428 | 423 |
| Cc1nn(Cc2ccccc2Cl)c(C)c1CN(C)CC(O)COc1ccc(Cl)cc1 (configuration not stated) | 445 | 428 | 436 | 436 | 432 | 430 | 463 | 440 | 435 |
| C[C@]12CC[C@@H]3c4ccc(O)cc4CC[C@H]3[C@@H]1[C@@H](O)[C@@H](O)[C@@H]2O | 461 | 471 | 468 | 465 | 448 | 461 | 468 | 457 | 450 |
| C[S+](=O)([O-])Nc1ccc([N+](=O)[O-])cc1Oc1ccccc1 | 452 | 465 | 464 | 467 | 449 | 464 | 461 | 456 | 460 |
| Nc1ncnc2c1ncn2[C@@H]1O[C@@H](CO)[C@H](O)[C@@H]1O | 454 | 467 | 441 | 467 | 466 | 449 | 464 | 477 | 472 |
| COC(=O)Nc1cc(Nc2cc(NC3CC3)c3ncc(C#N)n3n2)c(Cl)c(N2CCN(C)CC2)c1 | 384 | 385 | 368 | 363 | 346 | 328 | 423 | 400 | 392 |
| O=C(c1ccc(F)cc1)N1CCC[C@H](c2nc(-c3ccc(F)cc3)no2)C1 | 467 | 453 | 472 | 453 | 455 | 475 | 460 | 459 | 459 |
| N[S+]([O-])(=O)C1=CC=C(NC/2=C/C(=O)C3=CC=CC=C3C2=O)C=C1 | 446 | 465 | 461 | 448 | 399 | 436 | 464 | 467 | 459 |
| COC(=O)C[C@](O)(CCCC(C)(C)O)C(=O)O[C@@H]1C(OC)=CC23CCCN2CCc2cc4c(cc2[C@H]13)OCO4 (some centres not stated) | 458 | 466 | 466 | 462 | 452 | 471 | 458 | 458 | 458 |
| CNCC(O)c1ccc(O)cc1 (configuration not stated) | 446 | 455 | 441 | 423 | 452 | 459 | 464 | 466 | 469 |
| CCN1CCN(CC1)CC(=O)NC2=CC=C(C3=C2C4=C(S3)C=CC=C4)C5=C6O\C(=C/C(=O)C6=CC=C5)N7CCOCC7 | 420 | 442 | 432 | 337 | 337 | 338 | 464 | 447 | 453 |
| CNc1nc(Nc2ccc(C(=O)N3CCOCC3)cc2OC)ncc1Cl | 434 | 463 | 450 | 434 | 456 | 466 | 448 | 454 | 466 |
| CCN(CC)CCOc1ccc(/C(=C(\Cl)c2ccccc2)c2ccccc2)cc1 | 458 | 471 | 473 | 470 | 462 | 470 | 466 | 469 | 456 |
| CCc1ccc(CCOc2ccc(CC3SC(=O)NC3=O)cc2)nc1 (configuration not stated) | 448 | 442 | 460 | 444 | 402 | 474 | 450 | 473 | 469 |
| CC(C)(O)CC[C@@H](O)[C@](C)(O)[C@H]1CC[C@@]2(O)C/3=C/C(=O)[C@@H]4C[C@@H](O)[C@@H](O)C[C@]4(C)[C@H]3CC[C@]12C | 410 | 421 | 429 | 434 | 449 | 412 | 453 | 444 | 429 |
| O=C1NC(=O)/C(=C/c2ccc3nccc(-c4ccncc4)c3c2)S1 | 293 | 351 | 296 | 289 | 290 | 290 | 341 | 308 | 317 |

| Structure (SMILES) | AUC of viability dose-response curve (NOMO1; HPLM + 10% dialyzed FBS) | AUC of viability dose-response curve (NOMO1; RPMI 5 mM glucose + 10% FBS) | AUC of viability dose-response curve (NOMO1; [1]) | AUC of viability dose-response curve (SEM cells; HPLM + 10% dialyzed FBS) | AUC of viability dose-response curve (SEM cells; RPMI 5 mM glucose + 10% FBS) | AUC of viability dose-response curve (SEM cells; [1]) | AUC of viability dose-response curve (P12-Ichikawa; HPLM + 10% dialyzed FBS) | AUC of viability dose-response curve (P12-Ichikawa; RPMI 5 mM glucose + 10% FBS) | AUC of viability dose-response curve (P12-Ichikawa; [1]) |
| --- | --- | --- | --- | --- | --- | --- | --- | --- | --- |
| O=C(O)C1(Cc2cccc(Nc3nccs3)n2)CCC(Oc2cccc(Cl)c2F)CC1 (configuration not stated) | 381 | 382 | 386 | 370 | 369 | 368 | 356 | 373 | 381 |
| Cc1c(C)n(Cc2ccc(-c3ccccc3C(=O)O)cc2)c2ccc(C(=O)N[C@@H](C)c3ccc([N+](=O)[O-])cc3)cc12 | 421 | 411 | 417 | 460 | 466 | 470 | 425 | 423 | 422 |
| C[C@]12CCC(=O)C=C1CC[C@@H]1[C@@H]2[C@@H](O)C[C@@]2(C)[C@H]1CC[C@]2(O)C(=O)CO | 474 | 456 | 458 | 466 | 427 | 443 | 447 | 425 | 412 |
| CCCCC(=O)O[C@]1(C(=O)CO)[C@H](C)C[C@H]2[C@@H]3CCC4=CC(=O)C=C[C@]4(C)[C@@]3(F)[C@@H](O)C[C@@]21C | 467 | 474 | 472 | 378 | 362 | 350 | 372 | 315 | 292 |
| CNCCCC12CCC(c3ccccc31)c1ccccc12 | 429 | 426 | 411 | 453 | 443 | 469 | 442 | 439 | 428 |
| CC[C@]12CC[C@H]3[C@@H](CCC/4=C/C(=O)CC[C@H]34)[C@@H]1\C=C/[C@@]2(O)C#C | 461 | 451 | 450 | 446 | 465 | 464 | 473 | 473 | 470 |
| OC[C@H]1O[C@H]([C@H](O)[C@@H]1O)N2\C=C/C(=O)NC2=O | 448 | 429 | 455 | 463 | 447 | 450 | 473 | 456 | 466 |
| CC(C)(C)OC(=O)N[C@H]1CCCCC/C=C\[C@@H]2C[C@@]2(C(=O)N[S+](=O)([O-])C2CC2)NC(=O)[C@@H]2C[C@@H](OC(=O)N3Cc4cccc(F)c4C3)CN2C1=O | 457 | 468 | 472 | 401 | 441 | 466 | 468 | 467 | 459 |
| CCC[S+]([O-])c1ccc2[nH]c(NC(=O)OC)nc2c1 (configuration not stated) | 429 | 420 | 384 | 409 | 399 | 411 | 409 | 393 | 405 |
| ClC1=CC=C(C=C1)C(C#N)C2=C(Cl)C=C(C=C2Cl)N3\N=C/C(=O)NC3=O (configuration not stated) | 453 | 458 | 455 | 428 | 415 | 451 | 460 | 454 | 459 |
| C[C@]12CC[C@H]3[C@@H](CC[C@H]4NC(=O)\C=C/[C@]34C)[C@@H]1CC[C@@H]2C(=O)NC5=CC(=CC=C5C(F)(F)F)C(F)(F)F | 435 | 440 | 461 | 432 | 456 | 442 | 456 | 455 | 452 |
| O=C(O)Cn1nnc(-c2cc(N3CCC(Oc4cc(F)ccc4Br)CC3)no2)n1 | 357 | 340 | 361 | 422 | 464 | 459 | 413 | 415 | 428 |
| C[C@H](NC(=O)c1sccc1OCc1ccc(Cl)cc1)c1ccccc1 | 382 | 388 | 394 | 408 | 449 | 450 | 407 | 398 | 407 |
| CCOC(=O)[C@@H](N)Cc1ccc(-c2cc(O[C@H](c3ccc(Cl)cc3-n3ccc(C)n3)C(F)(F)F)nc(N)n2)cc1.O=C(O)CNC(=O)c1ccccc1 | 449 | 448 | 447 | 462 | 457 | 458 | 466 | 453 | 460 |
| C[C@@H]1COCCN1c1cc(C2([S@+](C)(=N)[O-])CC2)nc(-c2ccnc3[nH]ccc23)n1 | 358 | 390 | 382 | 333 | 335 | 336 | 380 | 381 | 368 |
| COc1cc(F)c(F)c(Nc2ccc(I)cc2F)c1N[S+](=O)([O-])C1(C[C@H](O)CO)CC1 | 449 | 455 | 457 | 465 | 443 | 461 | 450 | 461 | 456 |
